Assay results as given in patent US5246935A, “Piperazinyl derivatives and methods of treating central nervous system ailments relating to the 5-HT2 receptor system” (Novo Nordisk A/S, priority 1990, dated 1993).
Counter-ions that a name gives are not always drawn.

Experiments:
[1] = tested on: anxiety, depression; details: clinical; cited from earlier work
[2] = tested on: ischemic neuronal damage in the gerbil; details: cited from earlier work
[3] = tested on: 5HT2, alpha1-adrenergic and dopaminergic receptors; details: cited from earlier work
[4] = tested on: psychosis; details: in vivo; cited from earlier work
[5] = biological target: T1, 5HT2 receptor (Rattus norvegicus, UniProt P14842); test: In Vitro Inhibition of 5HT2-Receptor Binding (3H-Ketanserine); parameters: species or system rat (male Wistar); details: 3H-Ketanserine 0.4 nM, rat frontal cortex, 37° C., 15 min
T1 construct: incubated with isolated cell-membrane fragments; from tissue; host or cells: frontal cortex of male Wistar rats (membranes)
Description: In Vitro Inhibition of 5HT2 -Receptor Binding
(§1) Radioactive-labelled ligand ^3 H-Ketanserine is incubated with isolated cell-membrane fragments at 37° C. for a given period of time. Following completed incubation, the incubate is filtered through GF/B filters which are rinsed after filtration to remove unspecifically adhered radioactivity. As opposed to low-molecular compounds, membrane fragments are not rinsed through the filters, the radioactivity bound to the filters indicates the amount of ligand bound specifically as well as non-specifically to the membranes.
The preparation is made in ice bath. Polytron kinematica is rinsed with milli-Q-H2 O before and after use. Male Wistar rats, 150-200 g are decapitated. Frontal cortex is removed quickly and weighed (approx. 200 mg). Frontal cortex is added to centrifuging vial containing 10 ml ice-cold D2 buffer. Homogenization applying polytron kinematica (homogenizer) setting 6 for 20 sec. The homogenizer is rinsed with 10 ml D2 buffer in another centrifuging vial. The 10 ml rinsing buffer is added to the tissue vial. Centrifuged at 18,000 rpm for 10 min. at 4° C. Final pellet is transferred to 125×vol. of same buffer. (Ex. 200 mg in 25 ml D2 buffer). Can be stored for approx. 30 min. at 0° C.
25 μl ^3 H-Ketanserine (0.4 nM)
25 μl test substance/H2 O/blind cyproheptadine (2 μM)
Incubation for 15 min. at 37° C.
10 ml ice-cold 0.9% NaCl is added to the tubes. Filtration is performed through GF/B filters (use gloves). This procedure is repeated. Filters are placed in counting vials, and 4 ml opti- flour is added (prepare in fume cupboard, use gloves). Counting at window 0-19 of the beta-counter (Pachard). Note that receptor box and lid are rinsed thoroughly in H2 O after use to avoid contamination. Further the analytical site is cleaned carefully every day.
(§2) Dissolved in H2 O, EtOH, MeOH or DMSO and further diluted in H2 O. The 5HT2 binding will stand concentrations of up to approx. 5% of these solvents without affecting the binding. Most stock solutions are stable at 4° C. Attention should, however, be paid to any precipitation, change in colour etc. Test-substance dilutions are always made fresh every day. When weighing out test substance, it is attempted to weigh out approx. 1 mg of substance. Less than 0.8 mg must never be weighed out and only infrequently more than 2 mg (for economy reasons) dependent, however, on conc./assay.

[6] = biological target: Alpha1 receptor; test: In-Vitro Inhibition of Alpha1-Receptor Binding (3H-Prazosin); parameters: species or system rat (male Wistar); details: 3H-Prazosin 0.5 nM, rat cortex, 25° C., 30 min; read-out: Receptor binding IC50 α1
Description: In-Vitro Inhibition of Alpha1 -Receptor Binding, Radioactive-labelled ligand ^3 H-Prazosin is incubated with isolated cell-membrane fragments at 25° C. for a given period of time. Following completed incubation, the incubate is filtered through GF/B filters, which are rinsed following filtration to remove unspecifically adhered radioactivity. As opposed to low- molecular compounds, membrane fragments are not rinsed through the filters, the radioactivity bound to the filters indicates the amount of ligand bound specifically as well as nonspecifically to the membranes. The procedure is performed in ice bath. Polytron kinematica is rinsed with milli-Q-H2 O before and after use. Male Wistar rats, 150-200 g are decapitated, cortex is removed quickly and weighed (approx. 500 mg). Cortex is transferred to a centrifuging vial containing 10 ml ice-cold D2 buffer. Homogenization applying polytron kinematica (homogenizer) setting 6 for 20 sec. The homogenizer is rinsed with 10 ml D2 buffer in another centrifuging vial. The 10 ml rinsing buffer is added to the tissue vial. Centrifugation at 18,000 rpm for 12 min. at 4° C. This is repeated once. Final pellet is added to 400×vol. of same buffer. (Ex. 500 mg cortex in 200 ml D2 buffer). Can be stored for 30 min. at 0° C. 2,000 μl tissue 25 μl ^3 H-Prazosin (0.5 nM) 25 μl test substance/H2 O/blind Phentolamine (10 μM) Incubation for 30 min. at 25° C. 10 ml of ice-cold 0.9% NaCl is added to the tubes and filtered through GF/B filters (use gloves). This procedure is repeated. Filters are placed in counting vials and 4 ml opti-flour is added (perform in fume cupboard, use gloves). Counting is performed at window 0-19 of the betacounter (Pachard). […] Further, the analytical site is cleaned carefully every day after use. Dissolved in H2 O, EtOH, MeOH or DMSO and further diluted in H2 O. […] Most stock solutions are stable at 4° C. Attention should, however, be paid to any precipitation, change in colour etc. Test-substance dilutions are always prepared fresh every day. When weighing out test substances, it is attempted to weigh out approx. 1 mg of substance. Less than 0.8 mg must never be weighed out and only infrequently more than 2 mg (for economy reasons) dependent, however, on conc./ass.

[7] = biological target: T2, 5HT1A receptor (Rattus norvegicus, UniProt P19327); test: In-Vitro inhibition of 5HT1A receptor binding (3H-8-OH-DPAT); parameters: species or system rat (male Wistar); details: 3H-8-OH-DPAT 1 nM, rat frontal cortex and hippocampus, 37° C., 10 min
T2 sequence (P19327 1-422): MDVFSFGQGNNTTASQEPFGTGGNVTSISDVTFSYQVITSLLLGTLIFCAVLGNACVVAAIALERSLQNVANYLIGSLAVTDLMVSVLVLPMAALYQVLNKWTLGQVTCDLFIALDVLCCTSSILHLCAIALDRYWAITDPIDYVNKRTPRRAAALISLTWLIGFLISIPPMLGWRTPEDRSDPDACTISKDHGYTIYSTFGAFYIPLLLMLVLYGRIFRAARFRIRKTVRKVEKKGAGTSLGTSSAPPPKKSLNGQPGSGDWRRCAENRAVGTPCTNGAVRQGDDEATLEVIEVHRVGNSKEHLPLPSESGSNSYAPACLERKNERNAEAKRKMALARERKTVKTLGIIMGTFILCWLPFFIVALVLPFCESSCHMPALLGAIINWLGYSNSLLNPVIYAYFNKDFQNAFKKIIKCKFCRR
Description: In-Vitro inhibition of 5HT1A receptor binding
as §1, with “H-80H-DPAT” for “H-Ketanserine”, “GF/F” for “GF/B”, “nonspecifically” for “non-specifically”
Male Wistar rats, 150-200 g are decapitated, and frontal cortex (approx. 200 mg) and hippocampus (approx. 70 mg) homogenized in 2×10 ml ice-cold DPAT buffer for 20 sec. applying polytron kinematica setting 6. Centrifuged at 20,000 rpm for 10 min. at 4° C. The pellet is transferred to 2×10 ml ice-cold DPAT buffer, homogenized for 20 sec. and preincubated for 10 min. at 37° C. Centrifuged at 20,000 rpm for 10 min. at 4° C. Final pellet added to 125×vol. of same buffer with 10 μM paragylin added (ex. 270 mg tissue in 33.75 ml DPAT buffer containing paragylin). Prepared fresh every day. Use within 30 minutes.
1,250 μl tissue 25 μl ^3 H-80H-DPAT (1 nM) 25 μl test substance/H2 O/blind serotonin (10 μM)
Incubation at 37° C. for 10 min.--at 10 sec. intervals. To the tubes is added 10 ml ice-cold 0.9% NaCl. Filtration through GF/F filters (use gloves). This procedure is repeated. Filters are placed in counting vials and 4 ml optiflow added (prepare in fume cupboard, use gloves). Counted at window 0-19 of the beta- counter (Pachard). Note that receptor box and lid are rinsed thoroughly in H2 O after use to avoid contamination. Further the analytical site is cleaned carefully every day.
as §2, with “The DPAT” for “The 5HT2”, “always prepared” for “always made”, “test substances,” for “test substance,”, “dependent, however” for “dependent, however,”

[8] = tested on: 5-HT1A receptors; details: cited from earlier work
[9] = tested on: acetic acid-induced writhings in mice; test: Antagonism of Acetic Acid-Induced Writhings In Mice; format: in vivo, mouse (NMRI); details: Mus musculus, sc; s.c. 30 min before acetic acid 0.5 per cent i.p.; 50 per cent protection
Description: Antagonism of Acetic Acid-Induced Writhings In Mice
In mice i.p. injection of acetic acid induces a writhing syndrome which is antagonized by analgesics (Siegmund et al., 1957; Eckhardt et al., 1957).
Acetic acid 0.5 per cent is injected i.p. (0.15 ml/10 g body weight) to 6 mice (NMRI, either sex weighing 20-25 g) pretreated with physiological saline (controls) and to 6 mice pretreated with test substance. In the controls acetic acid induces a syndrome characterized by contraction of abdomen, turning of trunk and extension of hind limbs. Saline and test substances are administered s.c. 30 min. before acetic acid. The number of writhings is counted 5-15 min. after injection of acetic acid.
The activity is expressed as per cent protection: [formula]
The effect of active substances is evaluated by a dose response curve, log dose on the abscissa, and per cent protection on the ordinate. The potency is expressed as the dose (ED50 in mg/kg giving 50 per cent protection against writhings.
This test is used as a screening test for analgesics. Additional results from other screening tests are required to exclude active anti-writhing substances without analgesic effect.

[10] = tested on: dopamine D2 receptors; details: cited from earlier work
[11] = tested on: 5-HT2 receptor; details: cited from earlier work

T1 sequence (P14842 whole entry, the tested form may be a part): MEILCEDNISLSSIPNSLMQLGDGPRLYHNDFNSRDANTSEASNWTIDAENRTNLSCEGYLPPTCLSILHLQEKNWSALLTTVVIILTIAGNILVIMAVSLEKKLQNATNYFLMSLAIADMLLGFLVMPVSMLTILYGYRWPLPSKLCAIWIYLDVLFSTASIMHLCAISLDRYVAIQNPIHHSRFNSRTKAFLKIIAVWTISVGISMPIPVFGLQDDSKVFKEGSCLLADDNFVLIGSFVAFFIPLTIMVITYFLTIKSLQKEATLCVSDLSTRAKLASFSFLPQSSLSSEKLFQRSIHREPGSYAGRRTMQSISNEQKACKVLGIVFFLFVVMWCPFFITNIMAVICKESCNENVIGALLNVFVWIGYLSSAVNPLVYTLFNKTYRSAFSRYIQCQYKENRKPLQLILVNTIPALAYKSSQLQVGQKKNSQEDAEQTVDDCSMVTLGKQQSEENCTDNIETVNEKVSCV

SMILES: Cc1nc2sccn2c(=O)c1CCN1CCC(=C(c2ccc(F)cc2)c2ccc(F)cc2)CC1 [Ritanserin]
- anxiolytic / antidepressant efficacy (in words) [1]: demonstrate clinical efficacy as anxiolytic-antidepressant agents

SMILES: CCN(CC)CCOC(=O)C(Cc1cccc2ccccc12)CC1CCCO1 (centres unmarked) [naftidrofuryl]
- protective effect on ischemic neuronal damage in the gerbil (in words) [2]: exhibit a protective effect on ischemic neuronal damage

SMILES: CN1CCN(C2=Nc3cc(Cl)ccc3Nc3ccccc32)CC1 [clozapine]
- binding to 5HT2, alpha1-adrenergic and dopaminergic receptors (in words) [3]: nonselectively binds
- antipsychotic properties (in words) [4]: unprecedented antipsychotic potential

SMILES: COc1cc(NC(=S)OCCCN2CCN(c3ccccc3Cl)CC2)cc(OC)c1OC [Example 24, 4-(2-Chlorophenyl)-1-(3-[3,4,5-trimethoxyphenyl(thiocarbamoyl)oxy]propyl)piperazine, hydrochloride]
- IC50 [5]: 0.049 µM
- IC50 [6]: 0.0075 µM
- IC50 [7]: 0.061 µM

SMILES: O=C1CC2(CCCC2)CC(=O)N1CCCCN1CCN(c2ncccn2)CC1 [buspirone]
- binding affinity / selectivity for 5-HT1A receptors (in words) [8]: selectivity for 5-HT1A receptors
- anxiolytic / antidepressant efficacy (in words) [1]: effective anxiolytic agent

SMILES: Cl.O=C(Nc1ccc2c(c1)OCCO2)OCCCN1CCN(c2cccc(Cl)c2)CC1 [Example 18, 4-(3-Chlorophenyl)-1-[3-(3,4-ethylenedioxyphenylcarbamoyloxy)propyl]piperazine, hydrochloride]
- ED50 [9]: 7 mg/kg

SMILES: CCCN(CCC)C1CCc2cccc(O)c2C1 (centres unmarked) [Example 8-OH-DPAT, 8-hydroxy-2-(di-n-propylamino)tetralin]
- protective effect on ischemic neuronal damage in the gerbil (in words) [2]: exhibit a protective effect on ischemic neuronal damage
- binding affinity / selectivity for 5-HT1A receptors (in words) [8]: high affinity

SMILES: Cc1nc2n(c(=O)c1CCN1CCC(c3noc4cc(F)ccc34)CC1)CCCC2 [Risperidone]
- antagonism of dopamine D2 receptors (in words) [10]: potent antagonist
- antipsychotic properties (in words) [4]: antipsychotic properties

SMILES: O=C(c1ccc(F)cc1)C1CCN(CCn2c(=O)[nH]c3ccccc3c2=O)CC1 [ketanserin]
- affinity for / antagonism of 5-HT2 receptor (in words) [11]: high affinity

SMILES: Cl.O=C(Nc1ccc2c(c1)OCO2)OCCCN1CCN(c2cccc(Cl)c2)CC1 [Example 15, 4-(3-Chlorophenyl)-1-[3-(3,4-methylenedioxyphenylcarbamoyloxy)propyl]piperazine, hydrochloride]
- ED50 [9]: 5.6 mg/kg

SMILES: CCOC(=O)C1(c2ccccc2)CCN(C)CC1 [Pethidine, reference compound]
- ED50 [9]: 9.3 mg/kg
